According to patent publication US20250186374A1 (priority 2022, published 2025):
Entries after “also recorded” stand apart in the source; their conditions may differ. Like-named read-outs stand apart in the source and are kept apart here.

Experiments:
SARS-CoV-2 [1] = experiment: microbe, parasite or virus in culture; format: cell-based
SARS-CoV-2 3CLpro [2] = molecular target: T1, SARS-CoV-2 3CLpro (Severe acute respiratory syndrome coronavirus 2, UniProt P0DTD1); experiment: biochemical; format: biochemical; settings: for inhibitory activity in library screen: compound concentration of 100 μM
SARS-CoV-2 3CLpro [3] = molecular target: T1, SARS-CoV-2 3CLpro; experiment: Surface plasmon resonance binding to immobilized 3CLpro; settings: 0.164-100 μM, 25° C.
SARS-CoV-2 3CLpro [4] = molecular target: T1, SARS-CoV-2 3CLpro; experiment: Enzyme kinetics, Lineweaver-Burk plots; format: biochemical; settings: for Inhibition Type: Michaelis-Menten kinetics; for effect on Vmax of 3CLpro: compared to the DMSO control, 5 μM or 10 μM inhibitor
SARS-CoV-2 3CLpro [5] = molecular target: T1, SARS-CoV-2 3CLpro; experiment: Inhibition of cleavage of TriPro substrate protein, SDS-PAGE; format: biochemical; settings: 0.8 μM 3CLpro
SARS-CoV-2 [6] = experiment: Clinical examples 1-3, treatment of COVID-19 / SARS-CoV-2 positive subjects; format: in vivo
Description: Example 1: The following example describes treatment strategies for COVID-19 involving oral administration of an antiviral composition.
A physician diagnoses a patient with COVID-19. The patient is experiencing mild symptoms. […] The patient is to take the tablet once a day for one week. The patient is highly responsive and their symptoms go away after 2 days.
Example 2: The following example describes treatment strategies for intravenous administration of an antiviral composition.
A diabetic patient is hospitalized with severe COVID-19. […] The medication is added to an IV solution and delivered intravenously, twice a day for three days. The patient is highly responsive and experiences a reduction in their symptoms during the initial treatment period.
A subject tests positive for SARS-CoV-2 but is asymptomatic. […] The subject sprays the inside of their nose once a day for 5 days. The subject remains asymptomatic.

SARS-CoV-2 3CLpro [7] = molecular target: T1, SARS-CoV-2 3CLpro; experiment: Microscale thermophoresis ligand binding; settings: 10 nM labeled 3CLpro; read-out: KD (MST)
Description: Monolith NT.115 Microscale Thermophoresis (MST) instrument (NanoTemper Technologies) was used for this assay. Monolith protein labeling kit RED-NHS was purchased from NanoTemper Technologies. Briefly, 3CLpro protein was labeled using RED-NHS labelling kit (NanoTemper) following the manufacturer's instructions. […] The assay was read in 20% excitation power and medium MST power.

SARS-CoV-2 3CLpro [8] = molecular target: T1, SARS-CoV-2 3CLpro; settings: at 50 μM concentration; cited from earlier work
SARS-CoV 3CLpro = SARS-CoV 3CLpro (Severe acute respiratory syndrome coronavirus, UniProt P0C6X7); settings: cited from earlier work
SARS-CoV = settings: cited from earlier work
[9] = Severe acute respiratory syndrome coronavirus 2, Table 2 and text, SARS-CoV-2 viral replication, cell-based antiviral assay
[10] = Severe acute respiratory syndrome coronavirus 2, 48 h
[11] = FRET peptide substrate, 200 nM 3CLpro, read-out: SARS-CoV-2 3CLpro IC50

SMILES: CC(C)(C)NC(=O)N[C@H](C(=O)N1C[C@H]2[C@@H]([C@H]1C(=O)NC(CC1CCC1)C(=O)C(N)=O)C2(C)C)C(C)(C)C (some centres unmarked) [Boceprevir, boceprevir, reference compound]
- EC50 (SARS-CoV-2 [1]; [9]): 15.6 µM

SMILES: O=C(Nc1ccc([N+](=O)[O-])cc1Cl)c1cccc([N+](=O)[O-])c1O [JMX0207]
- EC50 (SARS-CoV-2 [1]; [10]): 1.22 µM
- CC50 at 48 h (in vitro): 13.2 µM

SMILES: CC(C)[C@H](NC(=O)c1cc(Cl)ccc1O)C(=O)Nc1ccc([N+](=O)[O-])cc1Cl [JMX0281]
- EC50 (SARS-CoV-2 [1]; [10]): 2.08 µM
- CC50 at 48 h (in vitro): 8.32 µM

SMILES: O=C(NC(Cc1ccccc1)C(=O)Nc1ccc([N+](=O)[O-])cc1Cl)c1cc(Cl)ccc1O (centres unmarked) [JMX0285]
- EC50 (SARS-CoV-2 [1]; [10]): 3.03 µM
- CC50 at 48 h (in vitro): 6.13 µM

SMILES: Cl.NCCOc1ccc(Cl)cc1C(=O)NCC(=O)Nc1ccc([N+](=O)[O-])cc1Cl [JMX0286, 2-(2-Aminoethoxy)-5-chloro-N-(2-((2-chloro-4-nitrophenyl)amino)-2-oxoethyl)benzamide hydrochloride]
- IC50 (SARS-CoV-2 3CLpro [2]; [11]): 4.8 µM
- inhibitory activity in library screen (SARS-CoV-2 3CLpro [2]): prominent inhibitory activity
- Kd (SARS-CoV-2 3CLpro [3]; read-out: KD (SPR, steady-state affinity model)): 9.8 µM
- Inhibition Type (SARS-CoV-2 3CLpro [4]; hydrochloride): non-competitive inhibition mechanism
- effect on Vmax of 3CLpro (SARS-CoV-2 3CLpro [4]): reduced the Vmax values
- CC50 (A549 and Vero E6 cells; Table 1, cell line not given): 3.78 µM
- EC50 (SARS-CoV-2 [1]; [10]): 2.25 µM
- inhibition of cleavage of the TriPro substrate protein (SARS-CoV-2 3CLpro [5]; hydrochloride): inhibited the cleavage of the TriPro substrate protein in a dose dependent manner; also recorded: inhibit the digestion of protein substrates in a dose dependent manner
- side effects (SARS-CoV-2 [6]; Example 1: oral tablet 50 mg once a day for one week): No side effects are reported
- clinical outcome (SARS-CoV-2 [6]; Example 1: oral tablet 50 mg once a day for one week, mild COVID-19): completely recovers

SMILES: CC(C)(C)OC(=O)NCCOc1ccc(Cl)cc1C(=O)NCC(=O)Nc1ccc([N+](=O)[O-])cc1Cl [JMX0301, tert-Butyl(2-(4-chloro-2-((2-((2-chloro-4-nitrophenyl)amino)-2-oxoethyl)carbamoyl)phenoxy)ethyl)carbamate]
- IC50 (SARS-CoV-2 3CLpro [2]; [11]): 4.5 µM
- inhibitory activity in library screen (SARS-CoV-2 3CLpro [2]): prominent inhibitory activity
- KD (SPR, steady-state affinity model) (SARS-CoV-2 3CLpro [3]): did not show binding
- Kd (SARS-CoV-2 3CLpro [7]): 34 µM
- Inhibition Type (SARS-CoV-2 3CLpro [4]): non-competitive inhibition mechanism
- effect on Vmax of 3CLpro (SARS-CoV-2 3CLpro [4]): reduced the Vmax values
- EC50 (μM) (SARS-CoV-2 [1]; Table 2, SARS-CoV-2 viral replication, cell-based antiviral assay): No Dose
- inhibition of cleavage of the TriPro substrate protein (SARS-CoV-2 3CLpro [5]): inhibited the cleavage of the TriPro substrate protein in a dose dependent manner; also recorded: inhibit the digestion of protein substrates in a dose dependent manner
- clinical outcome (SARS-CoV-2 [6]; Example 2: 100 mg with remdesivir 100 mg intravenously twice a day for three days, then 50 mg tablet, severe COVID-19): completely recovers
- side effects (SARS-CoV-2 [6]; Example 2: intravenous with remdesivir, then tablet): No side effects are reported

SMILES: O=C(Nc1ccc(C(F)(F)F)cc1Cl)c1cc(Cl)ccc1O [JMX0308]
- EC50 value (strong inhibition of SARS-CoV-2 virus) (SARS-CoV-2 [1]): sub-micromolar range
- EC50 (SARS-CoV-2 [1]; [10]): 0.806 µM

SMILES: O=C(Nc1ccc(C(F)(F)F)cc1Cl)c1cccc([N+](=O)[O-])c1O [JMX0310, N-(2-Chloro-4-(trifluoromethyl)phenyl)-2-hydroxy-3-nitrobenzamide]
- CC50 (A549 and Vero E6 cells; Table 1, cell line not given): 10.1 µM
- EC50 (SARS-CoV-2 [1]; [10]): 2.41 µM

SMILES: O=C(Nc1cc(F)cc(C(F)(F)F)c1)c1cc(Cl)ccc1O [JMX0312]
- EC50 (SARS-CoV-2 [1]; [10]): 1.13 µM
- CC50 at 48 h (in vitro): 1.97 µM

SMILES: O=C(Nc1cc(F)cc(C(F)(F)F)c1)c1cccc([N+](=O)[O-])c1O [JMX0317, N-(3-Fluoro-5-(trifluoromethyl)phenyl)-2-hydroxy-3-nitrobenzamide]
- CC50 (A549 and Vero E6 cells; Table 1, cell line not given): 11.7 µM
- EC50 (SARS-CoV-2 [1]; [10]): 4.03 µM

SMILES: O=C(Nc1ccc(F)c(F)c1)c1cc(Cl)ccc1O [JMX0321]
- EC50 (SARS-CoV-2 [1]; [10]): 1.19 µM
- CC50 at 48 h (in vitro): 3.76 µM

SMILES: O=C(Nc1cc(C(F)(F)F)cc(C(F)(F)F)c1)c1cc(Cl)ccc1O [JMX0325]
- EC50 value (strong inhibition of SARS-CoV-2 virus) (SARS-CoV-2 [1]): sub-micromolar range
- EC50 (SARS-CoV-2 [1]; [10]): 0.123 µM
- CC50 at 48 h (in vitro): 1.81 µM

SMILES: O=C(Nc1cc(C(F)(F)F)cc(C(F)(F)F)c1)c1cccc([N+](=O)[O-])c1O [JMX0330, N-(3,5-Bis(trifluoromethyl)phenyl)-2-hydroxy-3-nitrobenzamide]
- CC50 (A549 and Vero E6 cells; Table 1, cell line not given): 10.2 µM
- EC50 value (strong inhibition of SARS-CoV-2 virus) (SARS-CoV-2 [1]): sub-micromolar range
- EC50 (SARS-CoV-2 [1]; [10]): 0.498 µM

SMILES: CC1(Nc2ccc(NC(=O)c3cc(Cl)ccc3O)c(Cl)c2)CCCC1 [JMX0510-2]
- CC50 (A549 and Vero E6 cells): 11.5 µM
- EC50 (SARS-CoV-2 [1]): 4.88 µM

SMILES: CC(C)C[C@H](NC(=O)c1cc(Cl)ccc1O)C(=O)Nc1ccc([N+](=O)[O-])cc1Cl [JMX0671]
- EC50 (SARS-CoV-2 [1]; [10]): 1.56 µM
- CC50 at 48 h (in vitro): 8.03 µM

SMILES: CC(C)[C@H](NC(=O)c1cc(Cl)ccc1O)C(=O)Nc1ccc(C(F)(F)F)cc1Cl [JMX0672]
- EC50 (SARS-CoV-2 [1]; [10]): 1.92 µM
- CC50 at 48 h (in vitro): 8.34 µM

SMILES: CCC(C)[C@H](NC(=O)c1cc(Cl)ccc1O)C(=O)Nc1ccc([N+](=O)[O-])cc1Cl (some centres unmarked) [JMX0673]
- EC50 (SARS-CoV-2 [1]; [10]): 1.74 µM
- CC50 at 48 h (in vitro): 5.2 µM

SMILES: C[C@H](NC(=O)c1cc(Cl)ccc1O)C(=O)Nc1ccc([N+](=O)[O-])cc1Cl [JMX0674]
- EC50 (SARS-CoV-2 [1]; [10]): 9.75 µM
- CC50 at 48 h (in vitro): > 10 µM

SMILES: CC(C)[C@H](NC(=O)c1cc(Cl)ccc1O)C(=O)Nc1cc(C(F)(F)F)cc(C(F)(F)F)c1 [JMX0679]
- EC50 (SARS-CoV-2 [1]; [10]): 2.51 µM
- CC50 at 48 h (in vitro): 7.14 µM

SMILES: CC(C)[C@H](NC(=O)c1cc(Cl)ccc1O)C(=O)Nc1cc(F)cc(C(F)(F)F)c1 [JMX0680]
- EC50 (SARS-CoV-2 [1]; [10]): 4.57 µM
- CC50 at 48 h (in vitro): 10.1 µM

SMILES: CC(C)[C@H](NC(=O)c1cc(Cl)ccc1O)C(=O)Nc1ccc(F)c(F)c1 [JMX0681]
- EC50 (SARS-CoV-2 [1]; [10]): 9.75 µM
- CC50 at 48 h (in vitro): > 10 µM

SMILES: O=C(Nc1cc(F)cc(C(F)(F)F)c1)c1ccc(Cl)cc1O [JMX0887]
- EC50 value (strong inhibition of SARS-CoV-2 virus) (SARS-CoV-2 [1]): sub-micromolar range
- EC50 (SARS-CoV-2 [1]; [10]): 0.92 µM
- CC50 at 48 h (in vitro): 4.18 µM

SMILES: O=C(Nc1ccc([N+](=O)[O-])cc1)c1cc(Cl)ccc1O [JMX0895]
- EC50 value (strong inhibition of SARS-CoV-2 virus) (SARS-CoV-2 [1]): sub-micromolar range
- EC50 (SARS-CoV-2 [1]; [10]): 0.665 µM

SMILES: O=C(Nc1ccc([N+](=O)[O-])c(Cl)c1)c1cc(Cl)ccc1O [JMX0941]
- inhibitory activity in library screen (SARS-CoV-2 3CLpro [2]): prominent inhibitory activity
- Inhibition Type (SARS-CoV-2 3CLpro [4]): non-competitive inhibition mechanism
- effect on Vmax of 3CLpro (SARS-CoV-2 3CLpro [4]): reduced the Vmax values
- EC50 (SARS-CoV-2 [1]; [10]): 1.75 µM
- EC50 (SARS-CoV-2 [1]; [9]): 1.7 µM
- inhibition of cleavage of the TriPro substrate protein (SARS-CoV-2 3CLpro [5]): inhibited the cleavage of the TriPro substrate protein in a dose dependent manner; also recorded: inhibit the digestion of protein substrates in a dose dependent manner
- side effects (SARS-CoV-2 [6]; Example 3: intranasal spray 10 mg once a day for 5 days): No side effects are reported
- SARS-CoV-2 test on the 6th day (SARS-CoV-2 [6]; Example 3: intranasal spray 10 mg once a day for 5 days, asymptomatic subject): negative for SARS-CoV-2

SMILES: O=C(Nc1ccc([N+](=O)[O-])cc1Cl)c1cc(Cl)ccc1O [Niclosamide, niclosamide]
- IC50 (SARS-CoV-2 3CLpro [2]): > 50 µM
- inhibition of the SARS-CoV-2 3CLpro (SARS-CoV-2 3CLpro [8]): does not inhibit
- inhibitory activity against SARS-CoV 3CLpro (SARS-CoV 3CLpro): no obvious inhibitory activity
- EC50 (SARS-CoV; Vero E6 cells, read-out: EC50, SARS-CoV replication): < 0.1 µM
- concentration suppressing the cytopathic effect (CPE) of SARS-CoV (SARS-CoV; as low as): 1 µM
